# Source: patent US20200289554A1, “BIOORTHOGONAL COMPOUNDS COMPRISING A PROPARGYL GROUP FOR TREATING CANCER” (THE UNIVERSITY COURT OF THE UNIVERSITY OF EDINBURGH, priority 2016, published 2020)
# How the values were obtained:
# HCT116 cells [1] = assay: BOOM conversion: prodrug + Pd0-resins in cell culture, cell viability, HCT116; type: cell-based, human; details: Pd0-resin 1 mg/mL, 30 μM prodrug
# Experimental: (§1) Cell viabilities for each prodrug provided as a combination with palladium is presented in FIG. 16 in the right of each set of two bars. Data for prodrug in the absence of palladium catalyst is also provided (the left bar of each set of two bars) for comparison along with negative controls (from left to right: DMSO, Pd^0 and 5FU). Cells were incubated in tissue culture media containing 0.1% (v/v) DMSO and: Pd^0-resins (1 mg/mL, negative control); 3 μM (for BxPC3 cells) or 30 μM (for HCT116 cells) of prodrug (negative control); and Pd^0-resins (1 mg/mL)+3 μM (BxPC3) or 30 μM (HCT116) of each prodrug (BOOM reaction assay). […]
# (§2) Following 5 days treatment, cells were incubated with PrestoBlue™ Cell Viability Reagent (Life Technologies) for 90 min. Fluorescence intensity values were related to the untreated cells (100% cell viability). […]
# (§3) The toxigenic effect as a result of in situ generation of parental drug in cell culture was determined by incubating all cells in tissue culture media containing 0.1% (v/v) DMSO and a) Pd^0, Au, or Pd/Au-resin (1 mg/mL for all cells tested, negative control); b) prodrug (negative control); or c) Pd^0, Au, or Pd/Au-resin (1 mg/mL for all cells)+prodrug (reaction assay). […]
# (§4) A dose response study was performed for each cell line keeping the quantity of Pd^0 resin constant (0.8 mg/mL for U87G and 1 mg/mL for the rest of cell lines). […]
# BxPC3 cells [2] = assay: BOOM conversion: prodrug + Pd0-resins in cell culture, cell viability, BxPC3; type: cell-based, human; details: Pd0-resin 1 mg/mL, 3 μM prodrug
# Experimental: as §1, §2, §3, §4
# BxPC3 cells [3] = assay: Prodrug safety dose-response cell viability (PrestoBlue), BxPC3; type: cell-based; details: Homo sapiens, BXPC-3, 120 h, 5 days, no catalyst
# Experimental: (§5) These cell lines were selected as these are primary malignancies against which the parental drugs are currently prescribed.
# (§6) The toxicities of each active agent and prodrugs were compared by performing dose-response studies. […] Cell viability was analysed by fluoresce intensity (λex=540 nm; λem=590 nm) after 60-90 min incubation with PrestoBlue™ Reagent (Life Technologies).
# HCT116 cells [4] = assay: Prodrug safety dose-response cell viability (PrestoBlue), HCT116; type: cell-based; details: Homo sapiens, HCT-116, 120 h, 5 days, no catalyst
# Experimental: as §5, §6
# T98 cells = assay: Prodrug safety dose-response cell viability (PrestoBlue), T98; type: cell-based; details: Homo sapiens, 120 h, 5 days, no catalyst
# Experimental: as §5, §6
# DU145 cells = assay: Prodrug safety dose-response cell viability (PrestoBlue), DU145; type: cell-based; details: Homo sapiens, DU-145, 120 h, 5 days, no catalyst
# Experimental: as §5, §6
# A549 cells = assay: Prodrug safety dose-response cell viability (PrestoBlue), A549; type: cell-based; details: Homo sapiens, 120 h, 5 days, no catalyst
# Experimental: as §5, §6
# U87G cells [5] = assay: BOOM conversion: prodrug + Pd0-resins in cell culture, cell viability, U87G; type: cell-based, human; details: Pd0-resin, SN-38 prodrug
# Experimental: Following 5 days treatment, cells were incubated with PrestoBlue™ Cell Viability Reagent (Life Technologies) for 60-90 min. Fluorescence intensity values were related to the untreated cells (100% cell viability). […] Cells incubated in 0.1% (v/v) DMSO in media were used as untreated cell control.
# The toxigenic effect as a result of in situ generation of parental drug in cell culture was determined by incubating all cells in tissue culture media containing 0.1% (v/v) DMSO and a) Pd^0, Au, or Pd/Au-resin (1 mg/mL for all cells tested, negative control); b) prodrug (negative control); or c) Pd^0, Au, or Pd/Au-resin (1 mg/mL for all cells)+prodrug (reaction assay). Cells incubated in 0.1% (v/v) DMSO in media was used as an untreated cell reference standard (100% viability). A PrestoBlue® cell viability assay as described above was carried out and fluorescent intensities compared to the untreated cell control.
# A dose response study was performed for each cell line keeping the quantity of Pd^0 resin constant (0.8 mg/mL for U87G and 1 mg/mL for the rest of cell lines). […] Fluorescence intensity values (detected using a PerkinElmer EnVision 2101 multilabel reader with excitation filter at 540 nm and emissions filter at 590 nm) were determined relative to the untreated cell control.
# U87G cells [6] = assay: Prodrug safety dose-response cell viability (PrestoBlue), U87G; type: cell-based, human; details: Homo sapiens, 120 h, read-out: EC50 (cell viability)
# Experimental: as §5, §6
compound,measurement,setting,value
"C#CCOc1ncc(F)c(OCC#C)n1 [Bis-Pro-5FU, 2,4-bispropargyl-5-fluorouracil]",toxigenic effect of prodrug + Pd0 resins,HCT116 cells [1],strong toxigenic effect
same,toxigenic effect of prodrug + Pd0 resins,BxPC3 cells [2],strong toxigenic effect
same,EC50,BxPC3 cells [3],> 100000 nM
same,EC50,HCT116 cells [4],> 100000 nM
"COc1cccc2c1C(=O)c1c(O)c3c(c(O)c1C2=O)C[C@@](O)(C(=O)CO)C[C@@H]3O[C@H]1C[C@H](N)[C@H](O)[C@H](C)O1 [Doxorubicin, reference compound]",EC50,T98 cells,320 nM
same,EC50,DU145 cells,23 nM
same,EC50,A549 cells,105 nM
"C#CCOc1cccc(OCC#C)c1COc1ccc2nc3c(c(CC)c2c1)Cn1c-3cc2c(c1=O)COC(=O)[C@]2(O)CC [di-oPOB-SN-38, (S)-9-((2,6-bis(prop-2-yn-1-yloxy)benzyl)oxy)-4,11-diethyl-4-hydroxy-1,12-dihydro-14H-pyrano[3′,4′:6,7]indolizino[1,2-b]quinoline-3,14(4H)-dione]",toxigenic effect of prodrug + Pd0 resins,U87G cells [5],strong toxigenic effect
same,EC50,U87G cells [6],3150 nM
